Test results as given in US20060069132A1, “Azolecarboxamide herbicides” (priority 2004, published 2006).
Like-named read-outs stand apart in the source and are kept apart here.

Key:
blackgrass = assay: Test B postemergence herbicide test; assay type: in vivo, Alopecurus myosuroides; conditions: Alopecurus myosuroides, post-emergence, 336 h, postemergence, visual rating, scale 0 (no effect) to 100 (complete control), read-out: Blackgrass plant response rating
Method in brief: (§1)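 Greenhouse test; postemergence application to plants at 1–4 leaves (2–18 cm); paddy species at 2 leaves; evaluated visually vs controls at 13–15 days; scale 0–100 (100 = complete control).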

Surinam grass = assay: Test B pre-/postemergence herbicide test; assay type: in vivo, Urochloa decumbens; conditions: Urochloa decumbens; for pest or weed control at 125 g/ha: 125 g ai/ha; for pest or weed control at 500 g/ha: 500 g ai/ha
Method in brief: (§2)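 Formulation: non-phytotoxic solvent mix with surfactant. Timing: preemergence on seed and postemergence on 2–18 cm plants, applied concurrently. Readout after 13–15 d greenhouse: visual 0–100 control rating against controls.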

corn = assay: Test B pre-/postemergence herbicide test; assay type: in vivo, Zea mays; conditions: Zea mays
Method in brief: as §2

barnyardgrass [1] = assay: Test B flooded paddy test; assay type: in vivo, Echinochloa crus-galli; conditions: Echinochloa crus-galli, 336 h, 1000 g ai/ha, visual rating, scale 0 to 100 (0 no effect, 100 complete control), 13 to 15 days, read-out: Barnyardgrass plant response rating
Method in brief: as §1

ducksalad = assay: Test B flooded paddy test; assay type: in vivo, Heteranthera limosa; conditions: Heteranthera limosa, 336 h, 1000 g ai/ha, visual rating, scale 0 to 100 (0 no effect, 100 complete control), 13 to 15 days, read-out: Ducksalad plant response rating
Method in brief: as §1

wild oat = assay: Test B postemergence herbicide test; assay type: in vivo, Avena fatua; conditions: Avena fatua, post-emergence, 336 h, postemergence, visual rating, scale 0 (no effect) to 100 (complete control), read-out: Oat, Wild plant response rating
Method in brief: (§3)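 Postemergence plants were sprayed with formulated test chemicals at 2 to 18 cm height (1- to 4-leaf stage); paddy species were grown to the 2-leaf stage. After 13 to 15 days in a greenhouse, injury was rated visually against untreated controls on a 0–100 scale (0 = no effect, 100 = complete control).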

large crabgrass = assay: Test B pre-/postemergence herbicide test; assay type: in vivo, Digitaria sanguinalis; conditions: Digitaria sanguinalis; for pest or weed control at 125 g/ha: 125 g ai/ha; for pest or weed control at 500 g/ha: 500 g ai/ha
Method in brief: as §2

barnyardgrass [2] = assay: Test B pre-/postemergence herbicide test; assay type: in vivo, Echinochloa crus-galli; conditions: Echinochloa crus-galli; for pest or weed control at 125 g/ha: 125 g ai/ha; for pest or weed control at 500 g/ha: 500 g ai/ha
Method in brief: (§4)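 Greenhouse pot assay with simultaneous preemergence (treated seed) and postemergence (2–18 cm seedlings) applications of surfactant-containing, non-phytotoxic solvent formulations. Response scored visually 13–15 days later on a 0–100 scale, 100 meaning complete control.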

[3] = test system: small flower umbrella sedge; assay: Test B flooded paddy test; assay type: in vivo, Cyperus difformis; conditions: Cyperus difformis, 336 h, 1000 g ai/ha, visual rating, scale 0 to 100 (0 no effect, 100 complete control), 13 to 15 days, read-out: Sedge, Umbrella plant response rating
Method in brief: as §1

wheat = assay: Test B postemergence herbicide test; assay type: in vivo, Triticum aestivum; conditions: Triticum aestivum, post-emergence, 336 h, postemergence, 500 g ai/ha; visual rating, scale 0 (no effect) to 100 (complete control); read-out: Wheat plant response rating
Method in brief: as §3

velvetleaf = assay: Test B pre-/postemergence herbicide test; assay type: in vivo, Abutilon theophrasti; conditions: Abutilon theophrasti, 336 h; for pest or weed control at 125 g/ha: 125 g ai/ha; for pest or weed control at 500 g/ha: 500 g ai/ha
Method in brief: as §2

lambsquarters = assay: Test B pre-/postemergence herbicide test; assay type: in vivo, Chenopodium album; conditions: Chenopodium album, 336 h; for pest or weed control at 125 g/ha: 125 g ai/ha; for pest or weed control at 500 g/ha: 500 g ai/ha
Method in brief: as §2

morningglory = assay: Test B pre-/postemergence herbicide test; assay type: in vivo, Ipomoea coccinea; conditions: Ipomoea, 336 h; for pest or weed control at 125 g/ha: 125 g ai/ha; for pest or weed control at 500 g/ha: 500 g ai/ha
Method in brief: as §4

rice = assay: Test B flooded paddy test; assay type: in vivo, Oryza sativa; conditions: Oryza sativa, 336 h, 1000 g ai/ha, visual rating, scale 0 to 100 (0 no effect, 100 complete control), 13 to 15 days, read-out: Rice plant response rating
Method in brief: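 Scale 0–100: zero equals no visible effect, 100 complete control, judged by eye relative to controls. Timing: 13 to 15 days in greenhouse post-treatment. Growth stage at spraying: two leaves (paddy) or one to four leaves, 2–18 cm (postemergence).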

cocklebur = assay: Test B pre-/postemergence herbicide test; assay type: in vivo, Xanthium strumarium; conditions: Xanthium strumarium; for pest or weed control at 125 g/ha: 125 g ai/ha; for pest or weed control at 500 g/ha: 500 g ai/ha
Method in brief: as §4

[4] = post-emergence, postemergence, visual rating, scale 0 (no effect) to 100 (complete control), read-out: Surinam Grass plant response rating
[5] = post-emergence, postemergence, visual rating, scale 0 (no effect) to 100 (complete control), read-out: Crabgrass, Large plant response rating
[6] = post-emergence, postemergence, visual rating, scale 0 (no effect) to 100 (complete control), read-out: Barnyardgrass plant response rating
[7] = post-emergence, postemergence, visual rating, scale 0 (no effect) to 100 (complete control), read-out: Velvetleaf plant response rating
[8] = post-emergence, postemergence, visual rating, scale 0 (no effect) to 100 (complete control), read-out: Lambsquarters plant response rating
[9] = post-emergence, postemergence, visual rating, scale 0 (no effect) to 100 (complete control), read-out: Morningglory plant response rating
[10] = post-emergence, postemergence, visual rating, scale 0 (no effect) to 100 (complete control), read-out: Cocklebur plant response rating

Structure (SMILES): CCn1nc(C(C)(C)C)cc1C(=O)Nc1cc(C(=O)N(C)C)ccn1 [Compound 156, 2-[[[3-(1,1-dimethylethyl)-1-ethyl-1H-pyrazol-5-yl]carbonyl]amino]-N,N-dimethyl-4-pyridinecarboxamide]
- pest or weed control at 125 g/ha (blackgrass; 125 g ai/ha): 30%
- pest or weed control at 500 g/ha (blackgrass; 500 g ai/ha): 60%
- pest or weed control at 125 g/ha (Surinam grass; [4]): 10%
- pest or weed control at 500 g/ha (Surinam grass; [4]): 20%
- pest or weed control at 500 g/ha (Surinam grass; pre-emergence, visual rating 0-100, 0 no effect, 100 complete control, read-out: Plant response rating, Surinam Grass): 100%
- pest or weed control at 125 g/ha (Surinam grass; pre-emergence, preemergence, 0 to 100 scale, 0 is no effect, 100 is complete control, read-out: Plant response rating, Surinam Grass): 90%
- plant injury at 125 g/ha (corn; post-emergence, postemergence, 125 g ai/ha, visual rating, scale 0 (no effect) to 100 (complete control), read-out: Corn plant response rating): 0%
- plant injury at 500 g/ha (corn; post-emergence, postemergence, 500 g ai/ha, visual rating, scale 0 (no effect) to 100 (complete control), read-out: Corn plant response rating): 10%
- Corn plant response rating (crop injury, 0 = no effect, 100 = complete kill) at 500 g/ha (corn; pre-emergence, 500 g ai/ha, visual rating 0-100, 0 no effect, 100 complete control): 80%
- Corn plant response rating (crop injury, 0 = no effect, 100 = complete kill) at 125 g/ha (corn; pre-emergence, preemergence, 125 g ai/ha, 0 to 100 scale, 0 is no effect, 100 is complete control): 40%
- pest or weed control at 1000 g/ha (barnyardgrass [1]): 100%
- pest or weed control at 1000 g/ha (ducksalad): 100%
- pest or weed control at 125 g/ha (wild oat; 125 g ai/ha): 40%
- pest or weed control at 500 g/ha (wild oat; 500 g ai/ha): 40%
- pest or weed control at 125 g/ha (large crabgrass; [5]): 10%
- pest or weed control at 500 g/ha (large crabgrass; [5]): 10%
- pest or weed control at 500 g/ha (large crabgrass; pre-emergence, visual rating 0-100, 0 no effect, 100 complete control, read-out: Plant response rating, Crabgrass, Large): 100%
- pest or weed control at 125 g/ha (large crabgrass; pre-emergence, preemergence, 0 to 100 scale, 0 is no effect, 100 is complete control, read-out: Plant response rating, Crabgrass, Large): 90%
- pest or weed control at 125 g/ha (barnyardgrass [2]; [6]): 10%
- pest or weed control at 500 g/ha (barnyardgrass [2]; [6]): 40%
- pest or weed control at 500 g/ha (barnyardgrass [2]; pre-emergence, visual rating 0-100, 0 no effect, 100 complete control, read-out: Plant response rating, Barnyardgrass): 100%
- pest or weed control at 125 g/ha (barnyardgrass [2]; pre-emergence, preemergence, 0 to 100 scale, 0 is no effect, 100 is complete control, read-out: Plant response rating, Barnyardgrass): 100%
- pest or weed control at 1000 g/ha [3]: 90%
- plant injury at 500 g/ha (wheat): 20%
- pest or weed control at 125 g/ha (velvetleaf; [7]): 60%
- pest or weed control at 500 g/ha (velvetleaf; [7]): 90%
- pest or weed control at 500 g/ha (velvetleaf; pre-emergence, visual rating 0-100, 0 no effect, 100 complete control, read-out: Plant response rating, Velvetleaf): 100%
- pest or weed control at 125 g/ha (velvetleaf; pre-emergence, preemergence, 0 to 100 scale, 0 is no effect, 100 is complete control, read-out: Plant response rating, Velvetleaf): 100%
- pest or weed control at 125 g/ha (lambsquarters; [8]): 60%
- pest or weed control at 500 g/ha (lambsquarters; [8]): 80%
- pest or weed control at 500 g/ha (lambsquarters; pre-emergence, visual rating 0-100, 0 no effect, 100 complete control, read-out: Plant response rating, Lambsquarters): 100%
- pest or weed control at 125 g/ha (lambsquarters; pre-emergence, preemergence, 0 to 100 scale, 0 is no effect, 100 is complete control, read-out: Plant response rating, Lambsquarters): 100%
- pest or weed control at 125 g/ha (morningglory; [9]): 20%
- pest or weed control at 500 g/ha (morningglory; [9]): 50%
- pest or weed control at 500 g/ha (morningglory; pre-emergence, visual rating 0-100, 0 no effect, 100 complete control, read-out: Plant response rating, Morningglory): 100%
- pest or weed control at 125 g/ha (morningglory; pre-emergence, preemergence, 0 to 100 scale, 0 is no effect, 100 is complete control, read-out: Plant response rating, Morningglory): 60%
- plant injury at 1000 g/ha (rice): 90%
- pest or weed control at 125 g/ha (cocklebur; [10]): 40%
- pest or weed control at 500 g/ha (cocklebur; [10]): 80%
- pest or weed control at 500 g/ha (cocklebur; pre-emergence, visual rating 0-100, 0 no effect, 100 complete control, read-out: Plant response rating, Cocklebur): 100%
- pest or weed control at 125 g/ha (cocklebur; pre-emergence, preemergence, 0 to 100 scale, 0 is no effect, 100 is complete control, read-out: Plant response rating, Cocklebur): 100%
